Legend:
VCaP cells = test: Spheroid growth (CellTiter-Glo), VCaP; conditions: 7 days, 1 nM R1881
Protocol: (§5) Spheroids were generated by seeding prostate cancer cells in non-adherent U-bottom 96-well plates in medium supplemented with 5% of charcoal stripped FBS. VCaP, LNCaP-FGC, DU145, or PC3 cells were seeded in duplicate at a density of 2000, 500, 600, and 600 cells per well, respectively. […] Cell death was first evaluated by the incubation of the spheroids with propidium iodide (1 mg/mL) for 30 min, and quantitation of red fluorescence was performed using a Celigo® imaging cytometer (Nexcelom Bioscience). […] Then, proliferation was assessed following cell lysis with the CellTiter-Glo® Luminescent Cell Viability Assay reagent (Promega, Charbonnière, France), according to the manufacturer protocol. Quantification of the luminescence was performed using a MicroBeta Wallac luminometer (PerkinElmer), and percent growth was calculated relative to DMSO treated cells.
(§6) Spheroids were treated for 7 days, and cell death was evaluated by propidium iodide staining and fluorescence quantification, using the Celigo imaging system. Growth inhibition was then assessed by cell lysis with CellTiter-Glo, and quantification of the luminescence using a MicroBeta Wallac luminometer. Percent growth was calculated relative to dimethyl sulfoxide (DMSO) treated cells (n = 3 ± SEM).

[1] = target: T1, mineralocorticoid receptor (MR) (Homo sapiens, UniProt P08235); test: Transactivation assay in HG5LN MR cells; format: cell-based; conditions: 16 h, 1 nM aldosterone, highest concentrations used (>1 µM)
T1 construct: expressed in transfected cells
T1 sequence (P08235 726-964 limits assumed): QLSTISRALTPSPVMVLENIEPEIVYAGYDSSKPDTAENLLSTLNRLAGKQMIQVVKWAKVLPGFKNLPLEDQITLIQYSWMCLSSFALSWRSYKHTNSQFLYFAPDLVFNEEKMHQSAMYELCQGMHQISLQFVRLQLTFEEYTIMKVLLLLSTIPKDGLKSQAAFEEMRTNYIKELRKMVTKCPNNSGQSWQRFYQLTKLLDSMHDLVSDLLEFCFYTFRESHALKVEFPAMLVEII
Source text: HG5LN MR and HG5LN PXR luciferase reporter cell lines were obtained by stable expression of individual ligand binding domains fused to GAL4 DNA binding domain in HG5LN (HeLa GAL4REx5-luciferase) cells, as previously described. HELN PR cells were obtained by stably expressing PR with the ERα DNA binding domain in HELN (HeLa ERE-luciferase) cells and HMLN GR cells were obtained by stable co-transfection of HeLa cells with a plasmid encoding for a glucocorticoid responsive gene (MMTV-Luc-SV-Neo) and a glucocorticoid receptor expressing plasmid, as previously described.
Agonistic activities were evaluated in HMLN GR, HELN PR, HG5LN MR, and HG5LN PXR cells, using dexamethasone 100 nM, R5020 100 nM, aldosterone 100 nM, and SR12813 3 μM as a positive control, respectively. […] RU486 was used as a control antagonist for GR and PR, and spironolactone for MR.
HMLN glucocorticoid receptor (GR), HG5LN mineralocorticoid receptor (MR), HELN progesterone receptor (PR) and HG5LN PXR cells were used to evaluate the antagonistic effect of the tested compounds on (A) the glucocorticoid receptor (GR), (B) the mineralocorticoid receptor (MR), (C) the progesterone receptor (PR) and (D) the agonistic activity towards the pregnane X receptor (PXR). […]

VCaP spheroids = test system: VCaP spheroids
Protocol: (§1) prostate cancer cells. GAPDH was used as a loading control.
(§2) Spheroids were treated for 7 days with the indicated concentrations of each drug, stained with PI (1 mg/mL) for 30 min and […] was evaluated using the Celigo® imaging system. Results are expressed as mortality ratios as compared to untreated spheroids (set at 1). Each point represent s the m ean ± SEM of 3 […]
(§3) Mortality (ratio/control)
(§4) [Harmol Hydrochloride] (M)

LNCaP spheroids = test system: LNCaP spheroids
Protocol: as §1, §2, §3, §4

[2] = test system: AR target genes TMPRSS2, FKBP5, PSA; test: RT-qPCR of AR target genes in LNCaP cells; conditions: 3 µM, 24 h, 1 nM R1881
Protocol: (§7) LNCaP and VCaP cells were seeded in 6-well plates (10^6 and 2 × 10^6 cells per well, respectively) and, 48 h later, complete medium was replaced by charcoal-stripped medium with 5% FBS. Cells were then treated for 24 h with the tested compounds, and RNA extraction was performed using the Quick RNA Miniprep kit (Zymo-Research, Irvine, CA, USA), according to the manufacturer’s protocol. Reverse transcription was performed with 0.5 µg total RNA using the SuperScript III reverse transcriptase kit (ThermoFisher, Waltham, MA, USA), according to the manufacturer’s protocol, in a final volume of 20 µL. The levels of genes transcripts were measured by real time PCR using a LightCycler 480 system (Roche Life Science, Penzberg, Germany) in the presence of SYBRGreen (SYBR® Premix Ex Taq^tm) and the following primers: FKBP5, sense 5′-[sequence]-3′; antisense 5′-[sequence]-3′; PSA, sense 5′-[sequence]-3′; antisense 5′-[sequence]-3′; TMPRSS2, sense 5′-[sequence]-3′, antisense 5′-[sequence]-3′; GR, sense 5′-[sequence]-3′, antisense 5′-[sequence]-3′; HPRT, sense 5′-[sequence]-3′; antisense 5′-[sequence]-3′; GAPDH, sense 5′-[sequence]-3′; antisense 5′-[sequence]-3′. Expression levels were evaluated with the ΔΔCt method and were normalized to GAPDH. Results are expressed as mRNA expression, relative to control (untreated cells), and are the mean ± SEM of 3 independent experiments.

[3] = set-up: method as in PMID 20398925; conditions: cited from earlier work
LNCaP cells = test: Spheroid growth (CellTiter-Glo), LNCaP; conditions: 7 days, 1 nM R1881
Protocol: as §5, §6

GR [4] = test: GR expression (RT-qPCR and Western blot) in VCaP cells; conditions: 3 µM, 24 h, 1 nM R1881
Protocol: (§8) LNCaP and VCaP cells were seeded in 6-well plates (10^6 and 2 × 10^6 cells per well, respectively) and, 48 h later, complete medium was replaced by charcoal-stripped medium with 5% FBS. Cells were then treated for 24 h with the tested compounds, and RNA extraction was performed using the Quick RNA Miniprep kit (Zymo-Research, Irvine, CA, USA), according to the manufacturer’s protocol. Reverse transcription was performed with 0.5 µg total RNA using the SuperScript III reverse transcriptase kit (ThermoFisher, Waltham, MA, USA), according to the manufacturer’s protocol, in a final volume of 20 µL. The levels of genes transcripts were measured by real time PCR using a LightCycler 480 system (Roche Life Science, Penzberg, Germany) in the presence of SYBRGreen (SYBR® Premix Ex Taq^tm) and the following primers: FKBP5, sense 5′-[sequence]-3′; antisense 5′-[sequence]-3′; PSA, sense 5′-[sequence]-3′; antisense 5′-[sequence]-3′; TMPRSS2, sense 5′-[sequence]-3′, antisense 5′-[sequence]-3′; GR, sense 5′-[sequence]-3′, antisense 5′-[sequence]-3′; HPRT, sense 5′-[sequence]-3′; antisense 5′-[sequence]-3′; GAPDH, sense 5′-[sequence]-3′; antisense 5′-[sequence]-3′. Expression levels were evaluated with the ΔΔCt method and were normalized to GAPDH. Results are expressed as mRNA expression, relative to control (untreated cells), and are the mean ± SEM of 3 independent experiments. […]

[5] = test system: AR target genes TMPRSS2, FKBP5, PSA; test: RT-qPCR of AR target genes in VCaP cells; conditions: 3 µM, 24 h, 1 nM R1881
Protocol: as §7

GR [6] = test: GR expression (RT-qPCR and Western blot) in LNCaP cells; conditions: 3 µM, 24 h, 1 nM R1881
Protocol: as §8

With CNC(=O)c1ccc(N2C(=S)N(c3ccc(C#N)c(C(F)(F)F)c3)C(=O)C2(C)C)cc1F [enzalutamide, reference compound] the “Growth of VCaP spheroids” value (VCaP cells) was “could inhibit the growth”, the “Antagonistic activity towards MR” value [1] was “small antagonistic activity” and the “Cell death (propidium iodide positive cells) versus untreated spheroids” value (VCaP spheroids) was “did not significantly affect the number of propidium iodide positive cells”. The “Cell death (propidium iodide positive cells) versus untreated spheroids” value (LNCaP spheroids) was “did not significantly affect the number of propidium iodide positive cells”, the “R1881-mediated expression of AR target genes TMPRSS2, FKBP5, PSA” value [2] was “more pronounced for enzalutamide than for harmol hydrochloride” and the “Cmin required to saturate binding to AR” value [3] was 10 to 30 µM. For the same compound, the “Growth of LNCaP spheroids” value (LNCaP cells) was “could inhibit the growth of VCaP and LNCaP cells, tough to a lesser extent”, the “Expression of GR at the mRNA and protein levels” value (GR [4]) was “neither harmol nor enzalutamide treatment could significantly alter the expression of GR” and the “R1881-mediated expression of AR target genes TMPRSS2, FKBP5, PSA” value [5] was “more pronounced for enzalutamide than for harmol hydrochloride”. The “Expression of GR at the mRNA and protein levels” value (GR [6]) was “neither harmol nor enzalutamide treatment could significantly alter the expression of GR”.

From article PMC7349874, “High Content Screening Using New U2OS Reporter Cell Models Identifies Harmol Hydrochloride as a Selective and Competitive Antagonist of the Androgen Receptor” (Cells, 2020)
